According to ChEMBL document CHEMBL5665443, “Enzyme Inhibitor Single Concentration assay results for EUbOPEN Chemogenomics Library” (2024):

Legend:
[1] = biological target: Endonuclease 8-like 1 (Homo sapiens) (UniProt Q96FI4); details: Hit No;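 also: fluorescence at 594 nm from quenched duplex DNA oligonucleotides released by NEIL1 cleavage and strand separation, reported as reduction of this enzyme activity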
Description: Inhibition of NEIL1 by quantifying inhibition of NEIL1-mediated cleavage and dissociation of quenched duplex DNA oligonucleotides, measured as fluorescence at 594 nm.

[2] = biological target: T1, Endonuclease III-like protein 1 (Homo sapiens) (UniProt P78549); details: Hit No;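 also: enzyme assay tracking NTHL1 cutting and release of a quenched double-stranded DNA oligo substrate, read as fluorescence at 594 nm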
T1 sequence (whole entry): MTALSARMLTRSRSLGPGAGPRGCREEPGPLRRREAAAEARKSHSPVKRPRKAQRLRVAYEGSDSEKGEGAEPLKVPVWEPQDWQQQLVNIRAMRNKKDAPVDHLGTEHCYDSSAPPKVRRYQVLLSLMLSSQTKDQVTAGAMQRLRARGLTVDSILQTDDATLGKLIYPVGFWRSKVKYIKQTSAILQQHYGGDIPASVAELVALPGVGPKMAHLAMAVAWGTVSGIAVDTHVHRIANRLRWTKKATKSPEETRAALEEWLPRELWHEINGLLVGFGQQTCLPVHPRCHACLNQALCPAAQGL
Description: Inhibition of NTHL1 by quantifying inhibition of NTHL1-mediated cleavage and dissociation of quenched duplex DNA oligonucleotides, measured as fluorescence at 594 nm.

[3] = biological target: T2, Endonuclease 8-like 2 (Homo sapiens) (UniProt Q969S2); details: Hit No;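 also: fluorescence at 594 nm reports NEIL2 cutting and release of a quenched double-stranded DNA oligo substrate, reduced signal read as inhibition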
T2 sequence (whole entry): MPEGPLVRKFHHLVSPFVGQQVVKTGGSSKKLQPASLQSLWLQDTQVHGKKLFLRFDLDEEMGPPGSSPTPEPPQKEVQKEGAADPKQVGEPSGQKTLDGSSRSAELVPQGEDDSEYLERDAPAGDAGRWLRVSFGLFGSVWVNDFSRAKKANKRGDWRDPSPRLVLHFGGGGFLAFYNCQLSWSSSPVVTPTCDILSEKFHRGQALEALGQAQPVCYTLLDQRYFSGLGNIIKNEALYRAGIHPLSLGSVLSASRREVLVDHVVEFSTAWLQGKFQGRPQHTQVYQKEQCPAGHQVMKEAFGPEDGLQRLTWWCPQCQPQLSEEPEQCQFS
Description: Inhibition of NEIL2 by quantifying inhibition of NEIL2-mediated cleavage and dissociation of quenched duplex DNA oligonucleotides, measured as fluorescence at 594 nm.

[4] = biological target: N-glycosylase/DNA lyase (Homo sapiens) (UniProt O15527); details: Compound Concentration 10.0 uM, Hit No;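 also: OGG1 cleavage of a quenched duplex DNA oligonucleotide, coupled to APE1 for strand incision, read as fluorescence at 594 nm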
Chain of N-glycosylase/DNA lyase (Homo sapiens) (O15527 whole entry): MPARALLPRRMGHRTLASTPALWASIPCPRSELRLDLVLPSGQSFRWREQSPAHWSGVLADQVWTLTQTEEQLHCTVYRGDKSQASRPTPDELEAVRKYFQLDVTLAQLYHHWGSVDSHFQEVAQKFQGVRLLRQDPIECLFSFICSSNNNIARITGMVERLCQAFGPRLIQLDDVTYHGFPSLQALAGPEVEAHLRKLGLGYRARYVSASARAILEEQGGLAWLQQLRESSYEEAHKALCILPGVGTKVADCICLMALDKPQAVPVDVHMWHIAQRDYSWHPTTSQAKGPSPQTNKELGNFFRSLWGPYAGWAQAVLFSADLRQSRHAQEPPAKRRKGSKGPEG
Description: Inhibition of OGG1 by quantifying inhibition of OGG1-mediated cleavage and dissociation of quenched duplex DNA oligonucleotides, measured as fluorescence at 594 nm. To generate a functional strand incision and increase turn-over this assay is coupled to APE1.

[5] = biological target: T3, Single-strand selective monofunctional uracil DNA glycosylase (Homo sapiens) (UniProt Q53HV7); details: Hit No;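 also: enzymatic SMUG1 assay coupled with APE1, reading fluorescence at 594 nm released when a quenched double-stranded DNA oligonucleotide substrate is cleaved and separated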
T3 sequence (whole entry): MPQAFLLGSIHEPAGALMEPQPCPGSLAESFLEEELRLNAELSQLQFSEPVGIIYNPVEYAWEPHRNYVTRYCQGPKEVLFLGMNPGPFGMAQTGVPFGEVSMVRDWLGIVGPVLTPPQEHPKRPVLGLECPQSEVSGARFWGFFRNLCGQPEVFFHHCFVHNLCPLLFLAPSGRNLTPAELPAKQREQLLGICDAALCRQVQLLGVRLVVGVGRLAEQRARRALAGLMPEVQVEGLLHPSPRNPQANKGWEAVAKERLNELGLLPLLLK
Description: Inhibition of SMUG1 by quantifying inhibition of SMUG1-mediated cleavage and dissociation of quenched duplex DNA oligonucleotides, measured as fluorescence at 594 nm. To generate a functional strand incision and increase turn-over this assay is coupled to APE1.

[6] = biological target: G/T mismatch-specific thymine DNA glycosylase (Homo sapiens) (UniProt Q13569); details: Hit No;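 also: human TDG cleavage of quenched duplex DNA oligonucleotides coupled to APE1, strand release read as fluorescence at 594 nm, inhibition of TDG activity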
Chain of G/T mismatch-specific thymine DNA glycosylase (Homo sapiens) (Q13569 whole entry): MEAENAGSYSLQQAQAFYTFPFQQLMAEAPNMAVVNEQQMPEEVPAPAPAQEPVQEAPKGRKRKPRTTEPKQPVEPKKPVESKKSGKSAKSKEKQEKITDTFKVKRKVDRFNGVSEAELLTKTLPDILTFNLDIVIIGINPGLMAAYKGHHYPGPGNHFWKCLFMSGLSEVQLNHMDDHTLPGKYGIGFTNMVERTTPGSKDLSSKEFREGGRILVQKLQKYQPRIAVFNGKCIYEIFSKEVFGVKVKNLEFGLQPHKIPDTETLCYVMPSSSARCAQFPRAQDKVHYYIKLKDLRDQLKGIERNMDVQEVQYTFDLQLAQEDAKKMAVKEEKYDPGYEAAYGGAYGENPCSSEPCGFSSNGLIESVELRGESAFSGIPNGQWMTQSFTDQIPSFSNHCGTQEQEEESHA
Description: Inhibition of TDG by quantifying inhibition of TDG-mediated cleavage and dissociation of quenched duplex DNA oligonucleotides, measured as fluorescence at 594 nm. To generate a functional strand incision and increase turn-over this assay is coupled to APE1.

[7] = biological target: Uracil-DNA glycosylase (Homo sapiens) (UniProt P13051); details: Hit No;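 also: UNG excision on a quenched double-stranded DNA oligo probe, with APE1 added for strand incision and turnover, read as fluorescence at 594 nm as strands separate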
Chain of Uracil-DNA glycosylase (Homo sapiens) (P13051 whole entry): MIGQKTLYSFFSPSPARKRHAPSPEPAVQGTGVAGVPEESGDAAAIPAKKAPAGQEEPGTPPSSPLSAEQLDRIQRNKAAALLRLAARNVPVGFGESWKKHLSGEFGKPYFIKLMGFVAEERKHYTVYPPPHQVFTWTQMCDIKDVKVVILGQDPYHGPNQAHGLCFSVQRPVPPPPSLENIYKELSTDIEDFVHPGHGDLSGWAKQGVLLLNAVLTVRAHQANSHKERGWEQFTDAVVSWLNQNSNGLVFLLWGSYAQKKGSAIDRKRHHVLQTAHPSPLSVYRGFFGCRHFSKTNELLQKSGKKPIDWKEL
Description: Inhibition of UNG by quantifying inhibition of UNG-mediated cleavage and dissociation of quenched duplex DNA oligonucleotides, measured as fluorescence at 594 nm. To generate a functional strand incision and increase turn-over this assay is coupled to APE1.

Chain of Endonuclease 8-like 1 (Homo sapiens) (Q96FI4 whole entry): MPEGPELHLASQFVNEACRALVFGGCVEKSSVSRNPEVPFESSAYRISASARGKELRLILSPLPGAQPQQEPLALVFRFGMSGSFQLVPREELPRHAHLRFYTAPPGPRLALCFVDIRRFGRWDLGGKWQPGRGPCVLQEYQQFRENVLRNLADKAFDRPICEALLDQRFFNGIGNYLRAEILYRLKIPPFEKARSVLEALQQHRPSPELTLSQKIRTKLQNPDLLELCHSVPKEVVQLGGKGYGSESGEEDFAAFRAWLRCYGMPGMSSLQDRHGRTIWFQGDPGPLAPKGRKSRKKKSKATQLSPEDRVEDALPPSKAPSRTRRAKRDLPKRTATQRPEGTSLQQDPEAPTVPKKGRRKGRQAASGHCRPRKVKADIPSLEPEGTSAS

SMILES | inhibition ([1]; Compound Concentration 10.0 uM) [%] | inhibition ([2]; Compound Concentration 10.0 uM) [%] | inhibition ([3]; Compound Concentration 10.0 uM) [%] | inhibition [4] [%] | inhibition ([5]; Compound Concentration 10.0 uM) [%] | inhibition ([1]; Compound Concentration 1.0 uM) [%] | inhibition ([2]; Compound Concentration 1.0 uM) [%] | inhibition ([3]; Compound Concentration 1.0 uM) [%] | inhibition ([6]; Compound Concentration 1.0 uM) [%] | inhibition ([5]; Compound Concentration 1.0 uM) [%] | inhibition ([7]; Compound Concentration 1.0 uM) [%] | inhibition ([7]; Compound Concentration 10.0 uM) [%] | inhibition ([6]; Compound Concentration 10.0 uM) [%]
O=C1COc2nccc(-c3ccccc3F)c2CN1Cc1cc(C(F)(F)F)cc(C(F)(F)F)c1 | 2.76 | 2.66 | -2.98 | -4.66 | -3.96 |  |  |  |  |  |  |  | 
CCN1CCN(c2ccc(Nc3cc(N(C)C(=O)Nc4c(Cl)c(OC)cc(OC)c4Cl)ncn3)cc2)CC1 |  |  |  |  |  | -0.787 | 1.48 | -7.84 | 47.5 | 20.5 | 1.97 |  | 
O=C(Nc1c(-c2cccs2)nc2ccc(Cl)cn12)c1ccc(Cl)cc1 | 0.454 | 13.8 | 6.02 | -9.75 |  |  |  |  |  |  |  | -4.66 | 
CC[N+](CC)(CC)CCOc1ccc(/C=C/c2ccccc2)cc1 | 3.86 | 0.568 | 0.669 |  | 8.74 |  |  |  |  |  |  | 1.13 | 
C[C@@H](NCCCc1cccc(C(F)(F)F)c1)c1cccc2ccccc12 | 1.28 | -5.41 | 13.5 | -4.37 | 8.59 |  |  |  |  |  |  |  | -8.6
c1ccc2oc(-c3csc(C4CCN(Cc5nc6ncccc6[nH]5)CC4)n3)cc2c1 | -4.83 | -1.29 | 1.3 | 2.49 |  |  |  |  |  |  |  | -7.49 | 76.8
Cc1ccc(F)cc1C(=O)Nc1ccc(C(=O)N2Cc3cccn3Cc3ccccc32)c(Cl)c1 | -2.72 | 18.1 | -4.48 | -6.45 | -2.41 |  |  |  |  |  |  |  | -0.756
CC(C)(N)C(=O)N[C@H](COCc1ccccc1)C(=O)N1CCC2(CC1)CN(S(C)(=O)=O)c1ccccc12 | 7.36 | -1.74 | 7 |  | -6.91 |  |  |  |  |  |  | -9.48 | 6.18
Cc1csc(NC(=O)c2cc(F)cc(Oc3cncnc3)c2)n1 | -4.5 | 4.86 | 3.51 | -8.23 | 3.26 |  |  |  |  |  |  |  | 5.04
CCCC(=O)C1CCN(c2ncnc3c2CN(C(=O)c2ccc(-c4ccccc4)cc2)CC3)CC1 | 0.75 | 12.1 | -0.605 | -4.93 |  |  |  |  |  |  |  | -3.39 | 
CCCn1c(=O)c2[nH]c(C3CCCC3)nc2n(CCC)c1=O | -2.28 | -3.21 | 1.01 | -9.82 | -9.38 |  |  |  |  |  |  |  | 6.69
Cc1nc2ccc(Oc3ccc(F)cc3)cc2c(=O)n1C[C@H]1CCCN(C(C)C)C1 | 6.38 | -3.56 |  |  | -4.48 |  |  |  |  |  |  | -4.71 | -8.54
CCCCCCCCCCCCC/C=C/[C@@H](O)[C@@H](N)COP(=O)(O)O | 4.69 | -7.6 | 6.5 | 2.2 |  |  |  |  |  |  |  | -6.96 | -7.17
CN(c1ncccc1CNc1ccnc(-c2cc3cc(Cl)ccc3[nH]2)n1)S(C)(=O)=O | 8.2 | -4.79 | 1.85 |  | 14.4 |  |  |  |  |  |  | 1.54 | 37.5
CCc1nn2c(C)cc(C)nc2c1Cc1ccc(-c2nnc(C3CCNCC3)o2)cc1 | 6.02 | -9.8 | 2.26 | -9.16 |  |  |  |  |  |  |  |  | 1.84
Cc1c(-c2cc(-c3ccccc3Cl)no2)cnn1C1CCNCC1 | 5.79 | 12.9 | -0.35 |  | -1.2 |  |  |  |  |  |  | -3.3 | -8.91
N=C(N)NCCC[C@H](NC(=O)C12CC3CC(CC(C3)C1)C2)C(=O)N[C@@H](Cc1ccccc1)C(N)=O | 4.9 | 13.8 | -4.94 |  | -6 |  |  |  |  |  |  | -7.87 | 
CN(CCN1CCC(OC(=O)Nc2ccccc2-c2ccccc2)CC1)C(=O)c1ccc(CN2CCC(C(N)=O)CC2)cc1 | 3.95 | 15.8 | -7.72 | -7.57 |  |  |  |  |  |  |  |  | 

SMILES | inhibition ([1]; Compound Concentration 10.0 uM) [%] | inhibition ([2]; Compound Concentration 10.0 uM) [%] | inhibition ([3]; Compound Concentration 10.0 uM) [%] | inhibition [4] [%] | inhibition ([5]; Compound Concentration 10.0 uM) [%] | inhibition ([1]; Compound Concentration 1.0 uM) [%] | inhibition ([2]; Compound Concentration 1.0 uM) [%] | inhibition ([3]; Compound Concentration 1.0 uM) [%] | inhibition ([6]; Compound Concentration 1.0 uM) [%] | inhibition ([5]; Compound Concentration 1.0 uM) [%] | inhibition ([7]; Compound Concentration 1.0 uM) [%] | inhibition ([7]; Compound Concentration 10.0 uM) [%] | inhibition ([6]; Compound Concentration 10.0 uM) [%]
CCCSc1nc(N[C@@H]2C[C@H]2c2ccc(F)c(F)c2)c2nnn([C@@H]3C[C@H](OCCO)[C@@H](O)[C@H]3O)c2n1 | -9.1 | 11.4 |  | -6.84 |  |  |  |  |  |  |  | -5.37 | -6.53
CCCCCCCCc1ccc(CCC(N)(CO)CO)cc1 | 4.69 | -6.87 | -1.98 | -9.6 | 1.32 |  |  |  |  |  |  |  | 26.4
CN1CCN(c2nc(N)c3ccccc3n2)CC1 | 6.68 | 17.1 | 16 | -6.52 |  |  |  |  |  |  |  | -6.76 | -3.58
O=C(NCc1ccc(F)cc1)N1CCN2C(=O)OC(c3ccccc3)(c3ccccc3)C2C1 (stereo unspecified) | -1.09 | -0.275 | 9.75 | 1.66 | 10.1 |  |  |  |  |  |  |  | 6.86
Cc1c(C(=O)Nc2ccc(N3C[C@@H](C)O[C@@H](C)C3)nc2)cccc1-c1ccc(OC(F)(F)F)cc1 | -5.39 | -3.21 | 7.5 | -6.4 | -0.0333 |  |  |  |  |  |  |  | -4.8
Cc1ccccc1N1CCN(S(=O)(=O)C[C@]23CC[C@H](C[C@@H]2NC(=O)[C@@H](N)CCS(C)(=O)=O)C3(C)C)CC1 | 10.9 | 20.2 | -8.47 | -1.3 |  |  |  |  |  |  |  | -9.38 | -7.58
CCCC(=O)C1(c2ccccc2)CCN(C(=O)[C@@H](Cc2ccc(OC)cc2)NC(=O)[C@@H](N)Cc2cncn2C)CC1 | 0.454 | -2.73 | -1.37 | -8.78 |  |  |  |  |  |  |  | -7.56 | 
CC(F)(F)CN1CCOc2c(nn(-c3ccccc3Cl)c2-c2ccc(Cl)cc2)C1=O | -3.02 | 14.4 | 4.76 | 1.85 |  |  |  |  |  |  |  | -4.73 | -6.66
C=CCN1C[C@H](C)N([C@H](c2ccc(C(=O)N(CC)CC)cc2)c2cccc(O)c2)C[C@H]1C | -6.58 | 1.92 | 6.25 | -6.71 | 10.6 |  |  |  |  |  |  |  | 4.87
CN1CCN(c2nc3cc(C(F)(F)F)ccc3n3cccc23)CC1 | -1.92 | 16.2 | 16.2 | -6.12 |  |  |  |  |  |  |  | 0.522 | 
c1cc(CN2CCCNCCNCCCNCC2)ccc1CN1CCCNCCNCCCNCC1 |  | 13.7 |  | -2.11 | 1.47 |  |  |  |  |  |  |  | 2.03
N#Cc1cc2c(OCC(O)CN3CCN(C(c4ccccc4)c4ccccc4)CC3)cccc2[nH]1 (racemic) | 7.06 | -4.67 | -1.98 | -4.64 |  |  |  |  |  |  |  | -9.6 | -7.45
N#Cc1c(N)nc(SCC(N)=O)c(C#N)c1-c1ccc(OCC2CC2)cc1 | 5.43 | 13.7 | 6.25 | 6.64 |  |  |  |  |  |  |  |  | 
COc1cc(C)c(Sc2cnc(NC(=O)c3ccc(CNC(C)C(C)(C)C)cc3)s2)cc1C(=O)N1CCN(C(C)=O)CC1 (stereo unspecified) | -0.787 | -3.4 |  |  | 19.5 |  |  |  |  |  |  | 4.76 | 37.6
CCOc1cc2ncc(C#N)c(Nc3ccc(OCc4cccc(F)c4)c(Cl)c3)c2cc1NC(=O)/C=C/CN(C)C |  |  |  |  |  |  | -5.49 |  | 25.8 | 11.5 | 3.4 |  | 
Cc1cn2cc(CC(=O)N3CCC4(CC3)CN(Cc3ccc(-n5nccn5)cc3Cl)C4)nc2s1 | -6.88 | 6.32 |  | -2.88 | -0.227 |  |  |  |  |  |  |  | -1.26
CC(C)CCC[C@@H](C)[C@H]1CC[C@H]2[C@@H]3[C@H](O)C=C4C[C@@H](O)CC[C@]4(C)[C@H]3CC[C@]12C | 8.25 | -1.74 | -6.22 | -2.82 | -3.67 |  |  |  |  |  |  |  | -0.558
CCN1CCC[C@H]1CNC(=O)c1c(OC)ccc(Br)c1OC | -9.25 | -4.67 | -5.97 | -3.96 | -6.28 |  |  |  |  |  |  |  | -0.58
